ChEMBL document CHEMBL1909046, “DrugMatrix in vitro pharmacology data”

Tests used:
[1] = molecular target: T1, Vasoactive intestinal polypeptide receptor 1 (Homo sapiens, UniProt P32241); format: cell membranes, Membrane; conditions: ht-29; further: in other assays of this panel Not Active means under 50% inhibition at 10 µM
T1 sequence (P32241 whole entry): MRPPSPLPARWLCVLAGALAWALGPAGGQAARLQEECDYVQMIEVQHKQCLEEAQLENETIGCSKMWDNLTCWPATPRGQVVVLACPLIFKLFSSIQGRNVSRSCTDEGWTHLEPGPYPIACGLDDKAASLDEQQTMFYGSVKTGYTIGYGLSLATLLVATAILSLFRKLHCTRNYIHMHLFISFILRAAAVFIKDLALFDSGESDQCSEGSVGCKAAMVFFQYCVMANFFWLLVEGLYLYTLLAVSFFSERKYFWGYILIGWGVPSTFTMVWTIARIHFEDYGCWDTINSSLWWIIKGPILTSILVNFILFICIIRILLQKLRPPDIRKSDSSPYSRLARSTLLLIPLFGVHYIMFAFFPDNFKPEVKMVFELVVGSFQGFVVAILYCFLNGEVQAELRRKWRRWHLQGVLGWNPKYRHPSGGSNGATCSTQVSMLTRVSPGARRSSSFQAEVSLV

[2] = molecular target: Beta-3 adrenergic receptor (Homo sapiens, UniProt P13945); experiment: DRUGMATRIX: Adrenergic beta3 radioligand binding (ligand: [125I] Cyanopindolol); format: cell membranes, HEK293, Membrane; conditions: hek293; Not Active = under 50% inhibition at 10 µM
[3] = molecular target: Matrix metalloproteinase-9 (Homo sapiens, UniProt P14780); format: cell-based;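 further: inhibition of isolated MMP-9 enzyme activity toward a synthetic peptide substrate, from the DrugMatrix protease screening panel; in other assays of this panel Not Active means under 50% inhibition at 10 µM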
[4] = molecular target: Beta-2 adrenergic receptor (Homo sapiens, UniProt P07550); experiment: DRUGMATRIX: Adrenergic beta2 radioligand binding (ligand: [3H] CGP-12177); format: cell membranes, CHO, Membrane; conditions: cho; Not Active = under 50% inhibition at 10 µM
[5] = DRUGMATRIX: ATPase, Na+/K+ enzyme inhibition (substrate: ATP); format: tissue-based, Sus scrofa, Heart; conditions: Not Active = under 50% inhibition at 10 µM
[6] = molecular target: cGMP-specific 3',5'-cyclic phosphodiesterase (Homo sapiens, UniProt O76074); experiment: DRUGMATRIX: Phosphodiesterase PDE5 enzyme inhibition (substrate: [3H]cGMP + cGMP); format: tissue-based, Platelet; conditions: platelet; Not Active = under 50% inhibition at 10 µM
[7] = molecular target: T2, C-X-C chemokine receptor type 1 (Homo sapiens, UniProt P25024); further: in other assays of this panel Not Active means under 50% inhibition at 10 µM
T2 sequence (P25024 whole entry): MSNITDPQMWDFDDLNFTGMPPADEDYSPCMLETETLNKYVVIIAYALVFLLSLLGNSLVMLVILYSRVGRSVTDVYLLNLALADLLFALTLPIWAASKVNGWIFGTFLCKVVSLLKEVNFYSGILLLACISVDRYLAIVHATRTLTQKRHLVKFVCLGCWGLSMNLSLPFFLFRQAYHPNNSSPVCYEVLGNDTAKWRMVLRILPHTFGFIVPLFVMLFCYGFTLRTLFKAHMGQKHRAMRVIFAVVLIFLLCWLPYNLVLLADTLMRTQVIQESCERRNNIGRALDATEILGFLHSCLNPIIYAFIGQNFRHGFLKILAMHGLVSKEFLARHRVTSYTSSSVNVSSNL

Beta-3 adrenergic receptor, sequence (P13945 whole entry): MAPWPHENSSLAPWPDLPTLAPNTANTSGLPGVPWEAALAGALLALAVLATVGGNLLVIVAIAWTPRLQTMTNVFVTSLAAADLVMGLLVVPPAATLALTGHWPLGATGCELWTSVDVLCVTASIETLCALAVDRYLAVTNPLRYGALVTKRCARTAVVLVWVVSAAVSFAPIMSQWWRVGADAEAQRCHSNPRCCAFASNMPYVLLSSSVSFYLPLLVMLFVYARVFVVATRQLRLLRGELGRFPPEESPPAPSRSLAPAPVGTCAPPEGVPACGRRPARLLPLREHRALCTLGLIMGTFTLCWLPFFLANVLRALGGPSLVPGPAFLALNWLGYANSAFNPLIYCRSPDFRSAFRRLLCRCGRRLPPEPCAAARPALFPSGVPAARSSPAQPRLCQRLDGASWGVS
Matrix metalloproteinase-9, sequence (P14780 whole entry): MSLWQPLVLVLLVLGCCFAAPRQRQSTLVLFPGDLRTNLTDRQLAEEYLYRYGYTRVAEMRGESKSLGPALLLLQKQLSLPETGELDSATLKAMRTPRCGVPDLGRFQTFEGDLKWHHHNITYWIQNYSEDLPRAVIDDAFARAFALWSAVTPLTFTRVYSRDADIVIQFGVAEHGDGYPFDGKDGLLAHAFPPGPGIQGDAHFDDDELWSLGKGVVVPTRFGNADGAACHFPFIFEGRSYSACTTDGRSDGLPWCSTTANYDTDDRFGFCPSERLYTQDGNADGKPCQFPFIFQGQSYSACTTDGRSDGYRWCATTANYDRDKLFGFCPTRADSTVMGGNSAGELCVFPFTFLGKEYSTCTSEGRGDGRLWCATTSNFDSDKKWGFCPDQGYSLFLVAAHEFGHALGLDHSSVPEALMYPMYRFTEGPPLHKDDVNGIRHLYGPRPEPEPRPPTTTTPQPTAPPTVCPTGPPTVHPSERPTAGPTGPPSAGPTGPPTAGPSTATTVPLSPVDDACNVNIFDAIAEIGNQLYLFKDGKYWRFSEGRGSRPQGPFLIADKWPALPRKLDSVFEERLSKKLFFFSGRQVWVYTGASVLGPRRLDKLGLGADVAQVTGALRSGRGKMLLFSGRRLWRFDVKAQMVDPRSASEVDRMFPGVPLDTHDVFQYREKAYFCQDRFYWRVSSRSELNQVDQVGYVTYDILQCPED

CC[C@@]1(O)C(=O)OCc2c1cc1n(c2=O)Cc2cc3c(CN(C)C)c(O)ccc3nc2-1 [TOPOTECAN]
Not Active: IC50 [1] | IC50 [2] | IC50 [3] | IC50 [4] | IC50 [5] | Ki [5] | IC50 [6] | IC50 [7]

C#C[C@]1(O)CC[C@H]2[C@@H]3[C@H](C)CC4=C(CCC(=O)C4)[C@H]3CC[C@@]21C [TIBOLONE]
Not Active: IC50 [1] | IC50 [2] | IC50 [3] | IC50 [4] | IC50 [5] | Ki [5] | IC50 [6] | IC50 [7]

Oc1ccc(/C=C/c2cc(O)cc(O)c2)cc1 [RESVERATROL]
Not Active: IC50 [1] | IC50 [2] | IC50 [3] | IC50 [4] | IC50 [5] | Ki [5] | IC50 [6] | IC50 [7]

Cc1ccc(Cl)c(Nc2ccccc2C(=O)O)c1Cl [MECLOFENAMIC ACID]
Not Active: IC50 [1] | IC50 [2] | IC50 [3] | IC50 [4] | IC50 [5] | Ki [5] | IC50 [6] | IC50 [7]

Cc1ccnc(NS(=O)(=O)c2ccc(N)cc2)n1 [SULFAMERAZINE]
Not Active: IC50 [1] | IC50 [2] | IC50 [3] | IC50 [4] | IC50 [5] | Ki [5] | IC50 [6] | IC50 [7]

CCOc1cc(N)c(Cl)cc1C(=O)NCC1CN(Cc2ccc(F)cc2)CCO1 (stereo not drawn) [MOSAPRIDE]
Not Active: IC50 [1] | IC50 [2] | IC50 [3] | IC50 [4] | IC50 [5] | Ki [5] | IC50 [6] | IC50 [7]

C[C@]12CCC(=O)C[C@@H]1CC[C@@H]1[C@@H]2CC[C@]2(C)[C@@H](O)CC[C@@H]12 [STANOLONE]
Not Active: IC50 [1] | IC50 [2] | IC50 [3] | IC50 [4] | IC50 [5] | Ki [5] | IC50 [6] | IC50 [7]

C[N+]1(C)[C@@H]2C[C@@H](OC(=O)[C@H](CO)c3ccccc3)C[C@H]1[C@@H]1O[C@@H]12.[Br-] [METHSCOPOLAMINE BROMIDE]
Not Active: IC50 [1] | IC50 [2] | IC50 [3] | IC50 [4] | IC50 [5] | Ki [5] | IC50 [6] | IC50 [7]

OC[C@@H](O)[C@@H](O)[C@H](O)[C@H](O)CO [MANNITOL]
Not Active: IC50 [1] | IC50 [2] | IC50 [3] | IC50 [4] | IC50 [5] | Ki [5] | IC50 [6] | IC50 [7]

O=C(O)c1cc(/N=N/c2ccc(S(=O)(=O)Nc3ccccn3)cc2)ccc1O [SULFASALAZINE]
Not Active: IC50 [1] | IC50 [2] | IC50 [3] | IC50 [4] | IC50 [5] | Ki [5] | IC50 [6] | IC50 [7]

CC1=C(/C=C/C(C)=C/C=C/C(C)=C/C(=O)O)C(C)(C)CCC1 [TRETINOIN]
Not Active: IC50 [1] | IC50 [2] | IC50 [3] | IC50 [4] | IC50 [5] | Ki [5] | IC50 [6] | IC50 [7]

CC[C@H](C)C(=O)O[C@H]1CCC=C2C=C[C@H](C)[C@H](CC[C@@H]3C[C@@H](O)CC(=O)O3)[C@H]21 [MEVASTATIN]
Not Active: IC50 [1] | IC50 [2] | IC50 [3] | IC50 [4] | IC50 [5] | Ki [5] | IC50 [6] | IC50 [7]

CCN(CC)C(=S)SSC(=S)N(CC)CC
Not Active: IC50 [1] | IC50 [2] | IC50 [3] | IC50 [4] | IC50 [5] | Ki [5] | IC50 [6] | IC50 [7]

O=[As][O-].[Na+] [SODIUM ARSENITE]
Not Active: IC50 [1] | IC50 [2] | IC50 [3] | IC50 [4] | IC50 [5] | Ki [5] | IC50 [6] | IC50 [7]

CCN(CC)N=O [N-NITROSODIETHYLAMINE]
Not Active: IC50 [1] | IC50 [2] | IC50 [3] | IC50 [4] | IC50 [5] | Ki [5] | IC50 [6] | IC50 [7]

Nc1nc(N)c2nc(-c3ccccc3)c(N)nc2n1
Not Active: IC50 [1] | IC50 [2] | IC50 [3] | IC50 [4] | IC50 [5] | Ki [5] | IC50 [6] | IC50 [7]

CCN(CC)CCNC(=O)c1cc(Cl)c(N)cc1OC [METOCLOPRAMIDE]
Not Active: IC50 [1] | IC50 [2] | IC50 [3] | IC50 [4] | IC50 [5] | Ki [5] | IC50 [6] | IC50 [7]

Cc1cc2c(s1)Nc1ccccc1N=C2N1CCN(C)CC1 [OLANZAPINE]
Not Active: IC50 [1] | IC50 [2] | IC50 [3] | IC50 [4] | IC50 [6] | IC50 [7]

Cc1nnc(NS(=O)(=O)c2ccc(N)cc2)s1 [SULFAMETHIZOLE]
Not Active: IC50 [1] | IC50 [2] | IC50 [3] | IC50 [4] | IC50 [5] | Ki [5] | IC50 [6] | IC50 [7]

CC#C[C@]1(O)CC[C@H]2[C@@H]3CCC4=CC(=O)CCC4=C3[C@@H](c3ccc(N(C)C)cc3)C[C@@]21C [MIFEPRISTONE]
Not Active: IC50 [1] | IC50 [2] | IC50 [3] | IC50 [4] | IC50 [5] | Ki [5] | IC50 [6] | IC50 [7]

CS(=O)(=O)c1ccc(C2=C(c3ccccc3)C(=O)OC2)cc1 [ROFECOXIB]
Not Active: IC50 [1] | IC50 [2] | IC50 [3] | IC50 [4] | IC50 [5] | Ki [5] | IC50 [6] | IC50 [7]

CC1(C)[C@H](C(=O)O)N2C(=O)C[C@H]2S1(=O)=O [SULBACTAM]
Not Active: IC50 [1] | IC50 [2] | IC50 [3] | IC50 [4] | IC50 [5] | Ki [5] | IC50 [6] | IC50 [7]

CO[C@@H]1[C@@H](OC)[C@H](C)[C@@](O)(CC(=O)O)O[C@H]1[C@H](C)[C@H]1O[C@@]2(CC[C@@](C)([C@H]3CC[C@@](C)([C@@H]4O[C@@H]([C@H]5O[C@](C)(O)[C@H](C)C[C@@H]5C)C[C@@H]4O[C@@H]4C[C@H](OC)[C@@H](OC)[C@H](C)O4)O3)O2)C[C@H](O)[C@H]1C.N [MADURAMICIN]
Not Active: IC50 [1] | IC50 [2] | IC50 [3] | IC50 [4] | IC50 [5] | Ki [5] | IC50 [6] | IC50 [7]

CNCCCC12CCC(c3ccccc31)c1ccccc12 [MAPROTILINE]
Not Active: IC50 [1] | IC50 [2] | IC50 [3] | IC50 [4] | IC50 [6] | IC50 [7]

LEAD(IV) ACETATE
Not Active: IC50 [1] | Ki [1] | IC50 [2] | Ki [2] | IC50 [3] | Ki [3] | IC50 [4] | Ki [4] | IC50 [5] | Ki [5] | IC50 [6] | Ki [6] | IC50 [7] | Ki [7]

O=C(c1ccccc1)c1ccc2n1CCC2C(=O)O (stereo not drawn) [KETOROLAC]
Not Active: IC50 [1] | IC50 [2] | IC50 [3] | IC50 [4] | IC50 [5] | Ki [5] | IC50 [6] | IC50 [7]

CC[C@H](C)[C@@H](CO[C@@H](Cc1ccccc1)C(=O)N[C@@H](CCS(C)(=O)=O)C(=O)OC(C)C)NC[C@@H](N)CS
Not Active: IC50 [1] | IC50 [2] | IC50 [3] | IC50 [4] | IC50 [5] | Ki [5] | IC50 [6] | IC50 [7]

CN(C)CCC=C1c2ccccc2COc2ccccc21 [DOXEPIN]
Not Active: IC50 [1] | IC50 [2] | IC50 [3] | IC50 [6] | IC50 [7]
